These are literature values, as cited in patent publication US20130121963A1, “N-PHENYL-2-PYRIMIDINEAMINE DERIVATIVES” (Concert Pharmaceuticals Inc., priority 2008, published 2013).

As a reminder, the half-life is the time in which the quantity being followed falls by half. As to `Cc1ccc(NC(=O)c2ccc(CN3CCNCC3)cc2)cc1Nc1nccc(-c2cccnc2)n1` [N-demethylated piperazine derivative], under “from the FDA label for imatinib”, the half-life is 40 h. In addition, the “plasma AUC of the metabolite relative to that of the parent” value (percent of the parent (imatinib) plasma AUC, from the FDA label) is listed as “approximately 15%”.
